Where two headings read alike, the source gives them in different places.
Experiment: Measurement of 1-octanol/water partition coefficient (shake flask method)
Format: physicochemical
Method: The 1-octanol/water partition coefficient of the diethylene glycol isopropyl ether was measured by a shake flask method prescribed in JIS Z7260-107.
First, 10 g of ion-exchanged water and 10 g of 1-octanol were charged into a 50 mL separating funnel, and shaken at 25° C. to establish an equilibrium therebetween. Then, 1 g of diethylene glycol isopropyl ether was charged into the separating funnel, and the contents of the separating funnel were intimately shaken and subjected to centrifugal separation to separate the mixture into a 1-octanol phase and a water phase. The amounts of the diethylene glycol isopropyl ether dissolved in the respective phases were quantitatively determined by gas chromatography, thereby obtaining a partition coefficient of the diethylene glycol isopropyl ether between the two phases. The log P vale was determined as a common logarithm of the partition coefficient.
The same measurement procedure as in the above item (i) was repeated except for using a solvent to be measured in place of the diethylene glycol isopropyl ether (c1), thereby obtaining a 1-octanol/water partition coefficient of the solvent.

[1] = 1-octanol/water, shake flask method JIS Z7260-107, 25° C., log P as common logarithm, read-out: 1-octanol/water partition coefficient
[2] = shake flask method JIS Z7260-107, 25° C., log P as common logarithm
[3] = shake flask method JIS Z7260-107, 25° C., log P as common logarithm, read-out: 1-octanol/water partition coefficient

| logP | 1-octanol/water partition coefficient | logP [1] | SMILES | 1-octanol/water partition coefficient [2] | logP [3] |
| --- | --- | --- | --- | --- | --- |
| – | – | 0.04 | CC(C)OCCOCCO [diethylene glycol isopropyl ether] | DEGPE (0.04)*^1 | – |
| – | – | -0.31 | CCOCCOCCO [diethylene glycol monoethyl ether, Diethylene glycol monoethyl ether] | DEGEE (−0.31) | – |
| -1.5 | Glycerol (≧−1.5) | – | OCC(O)CO [glycerol] | – | – |
| -0.95 | Propylene glycol (−0.95) | – | CC(O)CO (stereo not shown) [propylene glycol] | – | – |
| -1.45 | Triethylene glycol (−1.45) | – | OCCOCCOCCO [triethylene glycol] | – | – |

Further lines, the compound ahead of its results:

| SMILES | logP | 1-octanol/water partition coefficient | logP [1] | 1-octanol/water partition coefficient [2] | logP [3] |
| --- | --- | --- | --- | --- | --- |
| O=C1CCCN1 [2-pyrrolidone] | -0.63 | – | – | – | – |
| CCCCOCCOCCO [Diethylene glycol monobutyl ether] | – | ether (0.7) | – | – | – |
| COCCOCCO [diethylene glycol monomethyl ether, Diethylene glycol monomethyl ether] | – | – | – | DEGME (−0.85) | -0.85 |
| OCCOCCO [diethylene glycol] | – | – | – | Diethylene glycol (−1.39) | -1.39 |

— US9670374B2, “Water-based ink for inkjet printing” (KAO CORPORATION, priority 2013, dated 2017)
